How the values were obtained:
Penicillium decumbens [1] = assay: Inhibition of Penicillium decumbens alpha-L-rhamnosidase at 750 uM relative to control
Penicillium decumbens [2] = assay: Inhibition of Penicillium decumbens alpha-L-rhamnosidase at 1000 uM relative to control
Penicillium decumbens [3] = assay: Inhibition of Penicillium decumbens alpha-L-rhamnosidase at 1000 uM using p-nitrophenyl-glycoside as substrate by spectrophotometric method
[4] = Inhibition of Helix pomatia beta-mannosidase using p-nitrophenyl-glycoside as substrate by spectrophotometric method
[5] = Inhibition of bovine liver beta-glucosidase using p-nitrophenyl-glycoside as substrate by spectrophotometric method; design: species or system Bos taurus
[6] = Inhibition of almond beta-glucosidase using p-nitrophenyl-glycoside as substrate by spectrophotometric method; design: species or system Prunus dulcis
[7] = Inhibition of Aspergillus niger amyloglucosidase assessed as D-glucose level using maltose as substrate measured after 10 to 30 mins
Homo sapiens = organism: Homo sapiens; assay: Inhibition of human lysosomal beta-glucosidase at 1000 uM using 4-methylumbelliferyl-beta-D-glucopyranoside as substrate preincubated for 45 mins followed by substrate addition measured after 30 mins by fluorescence spectrophotometric method
Escherichia coli = assay: Inhibition of Escherichia coli beta-galactosidase at 1000 uM using p-nitrophenyl-glycoside as substrate by spectrophotometric method
[8] = target: T1, Alpha-mannosidase (Canavalia ensiformis) (UniProt C0HJB3); assay: Inhibition of Jack bean alpha-mannosidase at 1000 uM preincubated for 45 mins followed by addition of p-nitrophenyl-glycoside as substrate measured after 30 mins by fluorescence spectrophometry
T1 sequence (whole entry): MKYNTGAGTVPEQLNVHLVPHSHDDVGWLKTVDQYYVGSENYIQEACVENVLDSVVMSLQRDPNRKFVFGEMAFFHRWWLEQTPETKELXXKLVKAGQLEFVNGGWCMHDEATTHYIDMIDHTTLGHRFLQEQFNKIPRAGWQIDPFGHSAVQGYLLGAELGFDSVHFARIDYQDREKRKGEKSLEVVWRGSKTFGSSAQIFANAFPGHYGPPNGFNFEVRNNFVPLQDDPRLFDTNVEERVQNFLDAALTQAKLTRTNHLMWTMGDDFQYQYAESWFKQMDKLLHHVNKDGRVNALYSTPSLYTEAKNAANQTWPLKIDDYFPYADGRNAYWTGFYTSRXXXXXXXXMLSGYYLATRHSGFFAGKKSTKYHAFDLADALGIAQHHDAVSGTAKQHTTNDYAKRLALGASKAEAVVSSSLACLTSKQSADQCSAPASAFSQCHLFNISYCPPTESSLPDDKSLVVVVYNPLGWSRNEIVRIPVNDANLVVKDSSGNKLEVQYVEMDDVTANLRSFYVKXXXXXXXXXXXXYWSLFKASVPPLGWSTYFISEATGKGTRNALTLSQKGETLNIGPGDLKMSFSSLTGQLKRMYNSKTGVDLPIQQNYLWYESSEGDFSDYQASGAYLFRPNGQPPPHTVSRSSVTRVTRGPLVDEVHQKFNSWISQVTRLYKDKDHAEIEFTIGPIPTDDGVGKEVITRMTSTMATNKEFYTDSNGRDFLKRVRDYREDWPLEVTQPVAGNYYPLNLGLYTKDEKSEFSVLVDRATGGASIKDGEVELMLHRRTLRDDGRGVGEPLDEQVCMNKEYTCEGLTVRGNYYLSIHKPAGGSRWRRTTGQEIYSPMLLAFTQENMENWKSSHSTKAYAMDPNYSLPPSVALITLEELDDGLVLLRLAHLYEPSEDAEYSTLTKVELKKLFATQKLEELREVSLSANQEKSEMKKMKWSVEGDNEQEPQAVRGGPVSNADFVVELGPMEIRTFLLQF

Coffea = assay: Inhibition of coffee bean alpha-galactosidase at 1000 uM using p-nitrophenyl-glycoside as substrate by spectrophotometric method
[9] = Inhibition of yeast alpha-glucosidase using p-nitrophenyl-glycoside as substrate by spectrophotometric method; design: species or system Saccharomyces cerevisiae

## C[C@@H]1NC[C@H](O)[C@H](O)[C@H]1O
Penicillium decumbens [1]
  inhibition: < 50%

## OC[C@@H]1NC[C@H](O)[C@@H]1O
Penicillium decumbens [2]
  inhibition: < 50%

## OC[C@H]1N[C@H](CO)[C@@H](O)[C@@H]1O
Penicillium decumbens [3]
  inhibition: < 50%
[4]
  IC50: 721 µM
[5]
  IC50: 9.7 µM
[6]
  IC50: 10 µM
[7]
  IC50: 116 µM
Homo sapiens
  inhibition: < 50%
Escherichia coli
  inhibition: < 50%
[8]
  inhibition: < 50%
Coffea
  inhibition: < 50%
[9]
  IC50: 7.8 µM

From ChEMBL document CHEMBL3868599, “Strategy for designing selective α-l-rhamnosidase inhibitors: Synthesis and biological evaluation of l-DMDP cyclic isothioureas” (Bioorg Med Chem, 2017)
